Read-outs that look alike come from different tables or passages of the source. Marks after values point to notes of the source that are not given here.
Key:
[1] = tested on: CMT12 breast carcinoma cells; experiment: Alamar Blue cell proliferation assay, CMT12; assay type: cell-based, canine; conditions: Canis lupus familiaris, Breast carcinoma cell, 72 h, read-out: Combination IC50 (chemotherapeutic agent with fixed masitinib)
[2] = tested on: Panc-1 pancreatic cancer cells; experiment: WST-1 proliferation assay, Panc-1; assay type: cell-based, human; conditions: Homo sapiens
Method: (§1) Cancer cell lines: Pancreatic cancer cells lines (Mia Paca-2, Panc-1, BxPC-3 and Capan-2) were obtained from Dr. Juan Iovanna (Inserm, France). Cells were maintained in RPMI (BxPC-3, Capan-2) or DMEM (Mia Paca-2, Panc-1) medium containing glutamax-1 (Lonza), supplemented with 100 U/ml penicillin/100 μg/ml streptomycin, and 10% fetal calf serum (FCS) (AbCys, Lot S02823S1800). Expression of tyrosine kinases was determined by RT-PCR using Hot Star Taq (Qiagen GmbH, Hilden, Germany) in a 2720 Thermal Cycler (Applied Biosystems).
(§2) Treatment was started with the addition of the respective drug. […] After 72 hours WST-1 reagent was added and incubated with the cells for 4 hours before absorbance measurement at 450 nm in an EL800 Universal Microplate Reader (Bio-Tek Instruments Inc.). Media alone was used as a blank and proliferation in the absence of compounds served as positive control. Results are representative of three/four experiments.

[3] = tested on: LnCaP prostate cancer cells; experiment: WST-1 proliferation/survival assay, LnCaP; assay type: cell-based; conditions: Homo sapiens, read-out: Gemcitabine IC50
Method: (§3) Gemcitabine (Gemzar, Lilly France) was obtained as a powder and dissolved in sterile 0.9% NaCl solution and stored as aliquots at −80° C. Fresh dilutions were prepared fcr each experiment. Cell lines: Colon and prostate cancer cell lines (Dr. Juan Iovanna, INSERM U624, Marseille, France), breast and ovarian cancer cell lines (Dr. Patrice Dubreuil, UMR 599 INSERM, Marseille, France), and lung cancer cell lines (Pr. Christian Auclair, UMR 8113 CNRS) were cultured as monolayers in RPMI 1640 medium containing L-glutamine supplemented with 100 U/ml penicillin and 100 μg/ml streptomycin, and 10% v/v heat-inactivated fetal calf serum (AbCys Lot S02823S1800) under standard culture conditions (5% CO2, 95% air in humidified chamber at 37° C.). In proliferation assays, all cells were grown in medium containing 1% FCS.
(§4) Treatment was started with the addition of the respective drug. […] After 72 hours WST-1 reagent was added and incubated with the cells for 4 hours before absorbance measurement at 450 nm in an EL800 Universal Microplate Reader (Bio-Tek Instruments Inc.). Media alone was used as a blank and proliferation in the absence of compounds served as positive control (DMSO control). The new IC50 was scored and the results are representative of 3-4 experiments.

[4] = tested on: BxPC-3 pancreatic cancer cells; experiment: WST-1 proliferation assay, BxPC-3; assay type: cell-based, human
Method: as §1, §2

[5] = tested on: DU145 prostate cancer cells; experiment: WST-1 proliferation/survival assay, DU145; assay type: cell-based; conditions: Homo sapiens, DU-145, read-out: Gemcitabine IC50
Method: as §3, §4

[6] = tested on: Capan-2 pancreatic cancer cells; experiment: WST-1 proliferation assay, Capan-2; assay type: cell-based, human; conditions: Homo sapiens
Method: as §1, §2

[7] = tested on: Mia Paca-2 pancreatic tumors; experiment: Nog-SCID mouse model of human pancreatic cancer; assay type: in vivo, Nog-SCID mice; conditions: day 56, 28 days of treatment; control 1023
[8] = tested on: MDAMB 134 breast cancer cells; experiment: WST-1 proliferation/survival assay, MDAMB 134; assay type: cell-based; conditions: Homo sapiens, read-out: Gemcitabine IC50
Method: as §3, §4

C2 mastocytoma cells = experiment: Alamar Blue cell proliferation assay, C2; assay type: cell-based, canine; conditions: Canis lupus familiaris, 72 h, read-out: Combination IC50 (chemotherapeutic agent with fixed masitinib)
[9] = tested on: CaCo-2 colorectal cancer cells; experiment: WST-1 proliferation/survival assay, CaCo-2; assay type: cell-based; conditions: Homo sapiens, read-out: Gemcitabine IC50
Method: as §3, §4

D17 osteosarcoma cells = experiment: Alamar Blue cell proliferation assay, D17; assay type: cell-based, canine; conditions: Canis lupus familiaris, 72 h, read-out: Combination IC50 (chemotherapeutic agent with fixed masitinib)
[10] = tested on: MDAMB 231 breast cancer cells; experiment: WST-1 proliferation/survival assay, MDAMB 231; assay type: cell-based; conditions: Homo sapiens, MDA-MB-231, read-out: Gemcitabine IC50
Method: as §3, §4

[11] = tested on: BT474 breast cancer cells; experiment: WST-1 proliferation/survival assay, BT474; assay type: cell-based; conditions: Homo sapiens, BT-474, read-out: Gemcitabine IC50
Method: as §3, §4

H1299 NSCLC cells = experiment: WST-1 proliferation/survival assay, H1299; assay type: cell-based; conditions: Homo sapiens, NCI-H1299, read-out: Gemcitabine IC50
Method: as §3, §4

H1650 NSCLC cells = experiment: WST-1 proliferation/survival assay, H1650; assay type: cell-based; conditions: Homo sapiens, NCI-H1650, read-out: Gemcitabine IC50
Method: as §3, §4

[12] = tested on: Abrams osteosarcoma cells; experiment: Alamar Blue cell proliferation assay, Abrams; assay type: cell-based, canine; conditions: Canis lupus familiaris, 72 h, read-out: Combination IC50 (chemotherapeutic agent with fixed masitinib)
[13] = tested on: CMT27 breast carcinoma cells; experiment: Alamar Blue cell proliferation assay, CMT27; assay type: cell-based, canine; conditions: Canis lupus familiaris, Breast carcinoma cell, 72 h, read-out: Combination IC50 (chemotherapeutic agent with fixed masitinib)
[14] = tested on: Mia Paca-2 pancreatic cancer cells; experiment: WST-1 proliferation assay, Mia Paca-2; assay type: cell-based, human; conditions: Homo sapiens
BT20 breast cancer cells = experiment: WST-1 proliferation/survival assay, BT20; assay type: cell-based; conditions: Homo sapiens, BT-20, read-out: Gemcitabine IC50
Method: as §3, §4

A549 NSCLC cells = experiment: WST-1 proliferation/survival assay, A549; assay type: cell-based; conditions: Homo sapiens, read-out: Gemcitabine IC50
Method: as §3, §4

[15] = tested on: HRT118 colorectal cancer cells; experiment: WST-1 proliferation/survival assay, HRT118; assay type: cell-based; conditions: Homo sapiens, read-out: Gemcitabine IC50
Method: as §3, §4

[16] = tested on: OVCAR3 ovarian cancer cells; experiment: WST-1 proliferation/survival assay, OVCAR3; assay type: cell-based; conditions: Homo sapiens, OVCAR-3, read-out: Gemcitabine IC50
Method: as §3, §4

## Nc1ccn([C@@H]2O[C@H](CO)[C@@H](O)C2(F)F)c(=O)n1 [Gemcitabine, 4-amino-1-(2-deoxy-2,2-difluoro-β-D-erythro-pentofuranosyl)pyrimidin-2(1H)-on 2′,2′-difluoro-2′-deoxycytidine]
[1]
  IC50: 10.8 µM
[2]; PANC-1, read-out: IC50 of gemcitabine plus 5 μM masitinib
  IC50: 8 µM
[2]; PANC-1, read-out: IC50 of gemcitabine plus 10 μM masitinib
  IC50: 1 µM
[2]; Panc-1, 72 hours, 1% FCS, read-out: IC50, single agent
  IC50: > 10 µM
[2]; Panc-1, read-out: IC50, single agent (resistance)
  IC50: > 2500 µM
[3]
  IC50: 25 to 100 µM
[4]; BxPC-3, 72 hours, 1% FCS, read-out: IC50, single agent
  IC50: 2 to 20 µM
[4]; Homo sapiens, BXPC-3, read-out: IC50 of gemcitabine plus 5 μM masitinib, BxPC-3, masitinib overnight before gemcitabine
  IC50: 10 µM
[4]; Homo sapiens, BXPC-3, read-out: IC50 of gemcitabine plus 10 μM masitinib, BxPC-3, masitinib overnight before gemcitabine
  IC50: 10 µM
[5]
  IC50: 100 µM
[6]; Capan-2, 72 h, Capan-2, 72 hours, 1% FCS, read-out: IC50, single agent
  IC50: 2 to 20 µM
[6]; Capan-2, read-out: IC50 of gemcitabine plus 5 μM masitinib, Capan-2, masitinib overnight before gemcitabine
  IC50: 2 µM
[7]
  Tumor Volume, Median: 662* mm^3
[8]
  IC50: 100 µM
C2 mastocytoma cells
  IC50: > 100 µM
[9]
  IC50: > 100 µM
D17 osteosarcoma cells
  IC50: 1.3 µM
[10]
  IC50: 100 µM
[11]
  IC50: 100 µM
H1299 NSCLC cells
  IC50: 100 µM
H1650 NSCLC cells
  IC50: 5 µM
[12]
  IC50: 1 µM
[13]
  IC50: 1.3 µM
[14]; MIA PaCa-2, read-out: IC50 of gemcitabine plus 5 μM masitinib
  IC50: 1.5 µM
[14]; MIA PaCa-2, read-out: IC50 of gemcitabine plus 10 μM masitinib
  IC50: 0.025 µM
[14]; Mia Paca-2, 72 hours, 1% FCS, read-out: IC50, single agent
  IC50: > 10 µM
[14]; Mia Paca-2, read-out: IC50, single agent (resistance)
  IC50: > 2500 µM
BT20 breast cancer cells
  IC50: 50 µM
A549 NSCLC cells
  IC50: 100 µM
[15]
  IC50: > 100 µM
[16]
  IC50: 50 µM

— patent publication US20150290235A1, “USE OF SMALL MOLECULE INHIBITORS/ACTIVATORS IN COMBINATION WITH (DEOXY)NUCLEOSIDE OR (DEOXY)NUCLEOTIDE ANALOGS FOR TREATMENT OF CANCER AND HEMATOLOGICAL MALIGNANCIES OR VIRAL INFECTIONS” (AB SCIENCE, priority 2012, published 2015)
